Where two headings read alike, the source gives them in different places.
Assays:
[1] = Partition of polar organic molecules between hexane and acetonitrile; format: physicochemical; conditions: hexane/acetonitrile equal volumes; GC; polar molecule wt%: propionaldehyde 7.5, butyraldehyde 5.2, valeraldehyde 5.5, 3-pentenenitrile 4.7
Method: Solutions were prepared containing equal volumes of hexane and acetonitrile. To each solution was added a polar organic molecule identified in Table L below. The mixture was vigorously shaken, then allowed to settle and phase separate. The two phases were then analyzed for content of polar molecule by GC. In Table L, the percent by weight of polar molecule added to the hexane/acetonitrile solvent mixture together with Kpartition is given for various polar molecules.

[2] = for Kpartition: hexane:acetonitrile (1:1) solvent system, summary table; for partition coefficient Kp: hexane/acetonitrile solvent system, examples, Tables A and B
[3] = Extraction of Texanol from rhodium/Ligand E catalyst: Kpartition and selectivity; format: physicochemical
Method: . To this mixture was added an equal volume of acetonitrile. The mixture was shaken for 30 minutes, then allowed to settle and phase separate for several hours. The two layers were then separated, and analyzed for content. The partition coefficient Kp of the catalyst is summarized in Table J below, together with the volume ratio of the two phases defined as Vratio=volume of the catalyst containing phase after extraction/volume of the extracting solution phase after extraction, and the selectivity of the extraction defined as Selectivity=Kpartition of catalyst/Kpartition organic material being separated from catalyst.
. […] The mixture was shaken for 30 minutes, then allowed to settle and phase separate over several hours. The two phases were then separated and analyzed for content. In Table K below, partition coefficient Kp of the catalyst and Texanol as well as the volume ratio of the two phases defined as Vratio=volume of the catalyst containing phase after extraction/volume of the extracting solution phase after extraction is summarized.

[4] = DMSO, Examples 18 (B 0.8 wt%, 223 ppm Rh), 19 (C 0.8 wt%, 222 ppm Rh), 21 (E 0.6 wt%, 136 ppm Rh)
[5] = polar solvent W: acetonitrile with 1 wt% water, Examples 24 (B 0.8 wt%, 223 ppm Rh), 25 (E 0.6 wt%, 120 ppm Rh)

Compound CC=CCC#N [3-pentenenitrile] has a Kpartition [1] of 50.
In the case of c1ccc(-c2ccccc2Op2oc3ccccc3c3ccccc3o2)c(Op2oc3ccccc3c3ccccc3o2)c1 [Ligand A, reference compound], the partitioning behavior ([2]; hexane/acetonitrile, Comparative Example A, control) is reported as “non-selective for the hydrocarbon phase” and the Kpartition [2] is reported as 0.04.
CC(C)(C)c1cc(-c2cc(C(C)(C)C)cc(C(C)(C)C)c2Op2oc3ccc(C(C)(C)C)cc3c3cc(C(C)(C)C)ccc3o2)c(Op2oc3ccc(C(C)(C)C)cc3c3cc(C(C)(C)C)ccc3o2)c(C(C)(C)C)c1 [Ligand B] showed a Kpartition [4] of 124, a Kpartition (acetonitrile, Ligand 0.8 wt%, rhodium 223 ppm, Example 17) of 19 and a Kpartition (hexane/acetonitrile, Ligand 1.5 wt%, rhodium 318 ppm, Example 15) of 34. It also gave a Kpartition [5] of 27 and a Kpartition [2] of 26.
For CC(C)(C)CC(C)(C)c1cc(-c2cc(C(C)(C)CC(C)(C)C)cc(C(C)(C)CC(C)(C)C)c2Op2oc3ccccc3c3ccccc3o2)c(Op2oc3ccccc3c3ccccc3o2)c(C(C)(C)CC(C)(C)C)c1 [Ligand C], the Kpartition [4] was 42, the Kpartition (Glutaronitrile, Ligand 0.8 wt%, rhodium 222 ppm, Example 20) was 43 and the Kpartition (hexane/acetonitrile, Ligand 0.8 wt%, rhodium 222 ppm, Example 16) was 28. For the same compound, the “Kpartition Ligand C” value ([2]; hexane/DMSO, Example 12) was 68, the “Kpartition Ligand C” value ([2]; hexane/glutaronitrile, Example 13) was 20 and the Kpartition [2] was 38.
Compound CCCCCC(C)(C)c1cc(-c2cc(C(C)(C)CCCCC)cc(C(C)(C)CCCCC)c2Op2oc3ccccc3c3ccccc3o2)c(Op2oc3ccccc3c3ccccc3o2)c(C(C)(C)CCCCC)c1 [Ligand D] has a Kpartition [2] of 116.
In the case of CC(C)(C)CC(C)(C)c1cc(-c2cc(C(C)(C)CC(C)(C)C)cc(C(C)(C)CC(C)(C)C)c2Op2oc3ccc(C(C)(C)C)cc3c3cc(C(C)(C)C)ccc3o2)c(Op2oc3ccc(C(C)(C)C)cc3c3cc(C(C)(C)C)ccc3o2)c(C(C)(C)CC(C)(C)C)c1 [Ligand E], the Kpartition [4] is reported as 79, the Kpartition (DMSO, Ligand 0.6 wt%, rhodium 120 ppm, Example 23) is reported as 128 and the Kpartition (acetonitrile, Ligand 0.6 wt%, rhodium 120 ppm, Example 22) is reported as 250. The Kpartition [5] was 352 and the Kpartition [2] was 502.
For CC(C)(C)c1ccc(OP(Oc2ccccc2-c2ccccc2OP(Oc2ccc(C(C)(C)C)cc2C(C)(C)C)Oc2ccc(C(C)(C)C)cc2C(C)(C)C)Oc2ccc(C(C)(C)C)cc2C(C)(C)C)c(C(C)(C)C)c1 [Ligand F], the Kpartition [2] was 100.
In the case of CC1(c2cc(-c3cc(C4(C)CCCCC4)cc(C4(C)CCCCC4)c3Op3oc4ccccc4c4ccccc4o3)c(Op3oc4ccccc4c4ccccc4o3)c(C3(C)CCCCC3)c2)CCCCC1 [Ligand G], the Kpartition [2] is reported as 19.
For CCC(C)(C)c1cc(-c2cc(C(C)(C)CC)cc(C(C)(C)CC)c2Op2oc3ccccc3c3ccccc3o2)c(Op2oc3ccccc3c3ccccc3o2)c(C(C)(C)CC)c1 [Ligand H], the Kpartition [2] was 6.
For CC(C)(C)c1cc(-c2cc(C(C)(C)C)cc(C(C)(C)C)c2Op2oc3ccccc3c3ccccc3o2)c(Op2oc3ccccc3c3ccccc3o2)c(C(C)(C)C)c1 [Ligand I], the Kpartition [2] was 2.3.
With CCCCCCCCP(CCCCCCCC)CCCCCCCC [Ligand J] the “partition coefficient Kp” value [2] was greater than 100 and the Kpartition [2] was greater than 100.
In the case of CCN(CC)P(Oc1c(-c2cc(OC)cc(C(C)(C)C)c2OP(N(CC)CC)N(CC)CC)cc(OC)cc1C(C)(C)C)N(CC)CC [Ligand K], the “partition coefficient Kp” value [2] is reported as 5 and the Kpartition [2] is reported as 5.
CC(C)(C)c1ccc(Op2oc3c(C(C)(C)C)cc(C(C)(C)C)cc3c3cc(C(C)(C)C)cc(C(C)(C)C)c3o2)c(C(C)(C)C)c1 [Ligand M] gave a Kpartition [2] of 25.
With CC(C)C(=O)OCC(C)(C)C(O)C(C)C (stereo not shown) [Texanol] the “Kpartition Texanol” value ([3]; hexane/acetonitrile, Vratio 5.6, Example 40) was 0.4 and the “Kpartition Texanol” value ([3]; toluene vs acetonitrile containing water 4/1, Example 41) was 96.
Work on CCCC=O [butyraldehyde] yielded a Kpartition [1] of 3.2.
Work on CCC=O [propionaldehyde] yielded a Kpartition [1] of 9.2.
CCCCC=O [valeraldehyde] showed a Kpartition [1] of 2.0.
